Where “and” joins values, the source holds several entries; their conditions need not be identical. Equal entries are not always repeated.
Target: T1, PNCK Nano-luciferase fusion (Homo sapiens, UniProt Q6P2M8)
T1 construct: host or cells: HEK293
Assay: NanoBRET Target Engagement Intracellular Kinase Assay, cell-based PNCK binding screen and dose response in HEK293 cells
Conditions: for inhibition at 1 µM: compound 1uM, read-out: Avg. Normalized % Inhibition, 1uM, Nanobret; for inhibition at 1 µM / inhibition at 10 µM: K10 tracer 1uM, normalized to staurosporine and DMSO; for inhibition at 10 µM: compound 10uM, read-out: Avg. Normalized % Inhibition, 10uM, Nanobret; for cell permeability: stated on testing in NanoBRET assay
Experimental: The NanoBRET Target Engagement Intracellular Kinase Assay (Promega N2520) is a cell-based binding screen which reads loss of BRET signal as a result of target binding. A PNCK Nano-luciferase fusion vector plasmid was generated custom by Promega. The K-10 tracer was used for the assay, as determined by Promega. The plasmid was maxiprepped by Genewiz for use in all future assays. HEK293 cells were seeded in a T175 flask in DMEM with 10% FBS. The following day, cells were counted to 10,000, resuspended in assay media (Optimem with no phenol red, 1% FBS). Plasmid and transfection reagent (Fugene HD, Promega E2311) were added to the mixture and cells were seeded in a white 96-well plate. After 20–24 hours, media was changed, and the assay proceeded according to protocol. K10 tracer was added at the recommended concentration of 1uM while compounds were initially screened at both 10uM and 1uM. Cells incubated with compound at 37 degrees Celsius for a maximum of 2 hours before the plate was read using Clariostar Plus. Data was normalized to Staurosporine and DMSO controls. For compounds selected for further analysis, dose response curves were generated using the same testing protocol but at 8 different concentrations: 24uM, 12uM, 6uM, 3uM, 1.5uM, .75uM 0.375uM and 0.1875uM. UM195 was tested with concentrations from 12uM to 0.09375. Similarly, compounds from the analog by catalog analysis were tested at concentrations from 24uM to 0.1875uM.
Data analysis of ADP Kinase Glo results were carried out per the manufacturer’s instructions. Results were represented as a percent decrease in activity. Data was normalized to staurosporine (positive control) as 100% decrease and DMSO (negative control) as a 0% decrease. Data for NanoBRET was analyzed by dividing the acceptor by the donor emission and […] to obtain raw millibret units (mBU). Background was subtracted using control emission averages. Data was normalized to positive and negative controls of staurosporine and DMSO. Concentration-response curves were plotted in GraphPad Prism 8 and IC50s were extrapolated using non-linear fit with concentrations transformed to logarithmic scale. Baseline was held constant and represented the average mBU of staurosporine controls while the top was constrained to represent the average mBU of DMSO controls. Error bars on dose-response curves represent standard deviations.

T1 sequence (Q6P2M8 whole entry, the tested form may be a part): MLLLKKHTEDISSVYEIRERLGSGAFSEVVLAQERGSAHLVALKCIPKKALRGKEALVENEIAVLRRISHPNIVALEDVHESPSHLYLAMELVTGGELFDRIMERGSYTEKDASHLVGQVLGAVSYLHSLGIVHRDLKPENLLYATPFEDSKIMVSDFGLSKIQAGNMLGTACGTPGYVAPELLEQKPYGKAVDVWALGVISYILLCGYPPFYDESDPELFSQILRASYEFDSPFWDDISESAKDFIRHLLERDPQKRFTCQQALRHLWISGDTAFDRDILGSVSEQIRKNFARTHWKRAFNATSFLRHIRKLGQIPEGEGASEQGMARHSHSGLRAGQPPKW

SMILES	inhibition at 1 µM (HEK293) [%]	inhibition at 10 µM (HEK293) [%]	other results
CC1CCc2c(sc(NC(=O)c3cccs3)c2C(N)=O)C1 (stereo not drawn) [UM_255]	0	1.24	
Cc1nc(N2CCC[C@H]3C(=O)NC[C@H]32)c2c(C)c(C)sc2n1 [UM_194]	1.43	27.6	
Cc1nnc(SCCCn2c(=O)[nH]c3ccccc32)n1N [UM_275]	12	52.2	
Cn1cnnc1SCc1nc(N)c2c3c(sc2n1)CCCC3 [UM_214]	27.2	62.3	
N#Cc1cnc(Sc2nnc(-c3ccccc3)o2)cn1 [UM_253]	4.54	55.6	
N#Cc1cnc(Sc2nnc(C3CCCCC3)o2)cn1 [UM_256]	2.86	51	
Nn1c(SCc2ccc(Br)cc2)nnc(CCC(=O)O)c1=O [UM_192]	0	0	cell permeability: not cell permeable
O=C1CCCCCN1CCc1nc(-c2cccnn2)no1 [UM_242]			cell permeability: not cell permeable
O=C1CCCN1CC(O)COc1ccc2c3c(c(=O)oc2c1)CCCCC3 (stereo not drawn) [UM_257]	15.2	48.6	
Cc1[nH]ccc1C(=O)NC1CCC(N2C(=O)CCC2=O)CC1 (stereo not drawn) [UM_211]	0	0	
NC(=O)Nc1cccc(C(=O)Nc2cc3c(cc2Br)OCCO3)c1 [UM_222]	28	71.1	
O=c1[nH]c(CSc2ccc3ccccc3n2)nc2ccccc12 [UM_281]	26.6	54.5	
C[C@@H]1CCc2c(sc(NC(=O)c3ccc(Cl)s3)c2C(N)=O)C1 [UM_228, (6R)-2-(5-chlorothiophene-2-amido)-6-methyl-4,5,6,7-tetrahydro-1-benzothiophene-3-carboxamide]	35.2	97.6	IC50 (8-point concentration-response, HEK293): 8.32 µM; Dose-Response Curve Data (NanoBRET signal, replicates) (Concentration 1.20E-05 M): 6.59 and 6.36 and 6.71; Dose-Response Curve Data (NanoBRET signal, replicates) (Concentration 1.50E-06 M): 8.32 and 8.64 and 8.50; Dose-Response Curve Data (NanoBRET signal, replicates) (Concentration 1.88E-07 M): 8.44 and 8.73 and 8.35; Dose-Response Curve Data (NanoBRET signal, replicates) (Concentration 2.40E-05 M): 5.75 and 5.50 and 5.61; Dose-Response Curve Data (NanoBRET signal, replicates) (Concentration 3.00E-06 M): 8.33 and 8.45 and 7.70; Dose-Response Curve Data (NanoBRET signal, replicates) (Concentration 3.75E-07 M): 8.86 and 8.18 and 8.92; Dose-Response Curve Data (NanoBRET signal, replicates) (Concentration 6.00E-06 M): 7.13 and 7.60 and 7.05; Dose-Response Curve Data (NanoBRET signal, replicates) (Concentration 7.50E-07 M): 8.73 and 8.94 and 8.43
COc1cccc(-c2nc3c(c(=O)[nH]2)Cc2cc(Br)ccc2O3)c1O [UM_229]	27.5	54	
O=c1oc2cc(OC3OC(CO)C(O)C(O)C3O)c(Cl)cc2c2c1CCCC2 (stereo not drawn) [UM_226]	21.8	51.6	
Cn1cnn(CN2CCN(c3ccc(O)cc3)CC2)c1=S [UM_199]	0	16.9	
c1ccc2c(-c3nnc(Sc4cnccn4)o3)cccc2c1 [UM_265]	21.5	63.5	
CNC(=O)[C@@H]1C[C@@H](N)CN1C(=O)CCc1nc(-c2cccnc2)no1 [UM_244]			cell permeability: not cell permeable
COc1ccccc1N(CCC(N)=O)C(=O)COc1ccc2c(c1)CCCC2=O [UM_249]	22.8	41.8	
COc1cccc(-n2nnc3c(=O)n(CC(=O)N4CCCC4)cnc32)c1 [UM_230]	21.2	55.1	
